Measured values taken from patent US11957687B2 (REGENERON PHARMACEUTICALS, INC., priority 2019, dated 2024).

How the values were obtained:
HSD17B13 = HSD17B13 (Homo sapiens (Human), UniProt Q7Z5P4); experiment: HSD17B13 enzymatic inhibition assay (150 nM or 50 nM HSD17B13); format: biochemical; details: 50 nM HSD17B13; read-out: Inhibition of 50 nM of HSD17B13 IC50
[1] = Microsome stability assay, human liver microsomes; format: in vitro ADME; details: 1 μM compound, 0.5 mg/mL microsomal protein
Procedure, shortened: (§1)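 Compound at 1 μM incubated at 37° C with pooled human or mouse liver microsomes (0.5 mg/mL protein) plus NADPH regenerating system, sampled at 0–60 min; a 60-min no-NADPH incubation also included. Single replicate; LC/MS/MS disappearance from analyte/internal standard peak area ratios, without standard curve.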

[2] = Microsome stability assay, mouse liver microsomes; format: in vitro ADME; details: 1 μM compound, 0.5 mg/mL microsomal protein
Procedure, shortened: as §1

HSD17B1 = HSD17B1 (Homo sapiens (Human), UniProt P14061); experiment: HSD17B1 enzymatic blocking assay; format: biochemical; details: 25 μM Estradiol, 500 μM NAD; read-out: Inhibition of HSD17B1 IC50
Chain of HSD17B1 (P14061 other isoform, or with tags, fused parts or gaps): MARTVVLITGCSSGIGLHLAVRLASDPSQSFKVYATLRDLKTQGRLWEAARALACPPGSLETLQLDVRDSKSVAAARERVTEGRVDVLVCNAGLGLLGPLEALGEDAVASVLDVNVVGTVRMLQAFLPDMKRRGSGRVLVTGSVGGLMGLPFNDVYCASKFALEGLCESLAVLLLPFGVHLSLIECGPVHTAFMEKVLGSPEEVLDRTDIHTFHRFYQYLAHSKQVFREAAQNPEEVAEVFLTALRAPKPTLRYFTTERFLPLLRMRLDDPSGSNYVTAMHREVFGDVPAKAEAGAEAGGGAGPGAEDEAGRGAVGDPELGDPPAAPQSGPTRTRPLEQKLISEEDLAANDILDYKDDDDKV
Procedure, shortened: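 Activity followed as NADH formed on estradiol oxidation, read by NADH-Glo luminescence after 1 h detection in the dark at room temperature. Compounds preincubated with enzyme 30 min at room temperature; 0.5% DMSO and no-substrate controls. IC50 fitted from luminescence.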

HSD17B2 = HSD17B2 (Homo sapiens (Human), UniProt P37059); experiment: HSD17B2 enzymatic blocking assay; format: biochemical; details: 1.8 μM Estradiol, 650 μM NAD; read-out: Inhibition of HSD17B2 IC50
Chain of HSD17B2 (P37059 other isoform, or with tags, fused parts or gaps): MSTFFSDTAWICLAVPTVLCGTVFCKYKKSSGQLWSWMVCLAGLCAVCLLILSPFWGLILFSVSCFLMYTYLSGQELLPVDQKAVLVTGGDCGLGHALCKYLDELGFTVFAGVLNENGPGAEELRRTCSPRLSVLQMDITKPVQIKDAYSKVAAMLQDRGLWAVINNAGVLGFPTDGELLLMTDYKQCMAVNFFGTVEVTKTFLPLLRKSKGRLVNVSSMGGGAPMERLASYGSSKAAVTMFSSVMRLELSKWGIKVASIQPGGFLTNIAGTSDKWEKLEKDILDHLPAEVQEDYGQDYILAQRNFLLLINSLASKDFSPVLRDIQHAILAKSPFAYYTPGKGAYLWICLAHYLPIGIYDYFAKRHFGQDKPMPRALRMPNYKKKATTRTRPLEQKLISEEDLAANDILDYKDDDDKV
Procedure, shortened: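 Mammalian-expressed enzyme at 2 ng/μL in 50 mM Tris-HCl pH 7.5 with detergents/BSA, preincubated 15 min at 20° C. with compound (10-point titration). Reaction with 1.8 μM estradiol and 650 μM NAD ran 45 min at 20° C.; NADH measured by NADH-Glo luminescence and IC50 derived.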

HSD17B4 = HSD17B4 (Homo sapiens (Human), UniProt P51659); experiment: HSD17B4 enzymatic blocking assay; format: biochemical; details: 23.46 μM Estradiol, 1500 μM NAD; read-out: Inhibition of HSD17B4 IC50
Chain of HSD17B4 (P51659 other isoform, or with tags, fused parts or gaps): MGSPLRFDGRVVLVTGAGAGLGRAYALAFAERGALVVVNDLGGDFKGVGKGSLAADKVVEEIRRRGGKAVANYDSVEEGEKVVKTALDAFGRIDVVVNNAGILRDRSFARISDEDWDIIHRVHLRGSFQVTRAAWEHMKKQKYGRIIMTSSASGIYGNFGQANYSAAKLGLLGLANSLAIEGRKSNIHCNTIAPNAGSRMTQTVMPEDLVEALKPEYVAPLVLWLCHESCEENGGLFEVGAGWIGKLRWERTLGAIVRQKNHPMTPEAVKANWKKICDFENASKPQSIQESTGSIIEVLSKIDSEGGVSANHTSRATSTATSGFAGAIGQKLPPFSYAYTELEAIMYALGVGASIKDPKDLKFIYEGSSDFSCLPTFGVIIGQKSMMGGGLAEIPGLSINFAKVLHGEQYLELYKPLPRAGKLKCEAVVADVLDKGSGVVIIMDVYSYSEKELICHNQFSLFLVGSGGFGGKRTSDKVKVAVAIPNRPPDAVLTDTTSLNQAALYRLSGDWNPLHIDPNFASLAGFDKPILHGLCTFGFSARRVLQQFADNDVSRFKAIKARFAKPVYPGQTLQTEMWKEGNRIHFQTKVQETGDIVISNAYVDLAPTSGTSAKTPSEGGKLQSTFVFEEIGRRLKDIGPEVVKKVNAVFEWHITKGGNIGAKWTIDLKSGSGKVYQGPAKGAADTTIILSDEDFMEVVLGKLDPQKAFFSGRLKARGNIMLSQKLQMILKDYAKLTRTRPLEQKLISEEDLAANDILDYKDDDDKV
Procedure: To screen compounds of the disclosure for their ability to block HSD17B4 function, an enzymatic blocking assay was performed. For the assay, HSD17B4 activity was measured by detecting NADH formation from oxidation of Estradiol using a NADH Glo luminescence assay (Promega, #Cat. No. G9062). Compounds of the disclosure were evaluated in a dose titration assay where the compounds were titrated at 10-point dose curve using an Echo-555 liquid handling dispenser. HSD17B4 (SEQ ID NO: 4, expressed in mammalian cells) was added at a final concentration of 2.5 ng/μL in a buffer containing 50 mM Tris-HCl, pH 7.5, Pluronic F-127 0.05%, Tween20 0.01%, BSA 0.01%, into a low volume white 384-well assay plate. Compounds were incubated with the enzyme for 15 min at 20° C. The assay reaction was then initiated by addition of 23.46 μM Estradiol substrate (Sigma, catalog #E2758-250MG, CAS: 50-28-2) and 1500 μM NAD co-factor, and the reaction mixture was incubated for 45 min at 20° C. DMSO at a concentration of 0.5% was used as a negative control and a ‘no substrate’ control was used a positive control in the assay. Detection reagent was then added as per manufacturer's instructions, and the plate was subsequently incubated in the dark for 1 hour at room temperature, NADH generated was detected in the luminescence mode on the Envision Perkin Elmer plate reader. The IC50 values were determined using Dotmatics analysis software.

HSD17B10 = HSD17B10 (Homo sapiens (Human), UniProt Q99714); experiment: HSD17B10 enzymatic blocking assay; format: biochemical; details: 25 μM Estradiol, 500 μM NAD; read-out: Inhibition of HSD17B10 IC50
Chain of HSD17B10 (Q99714 other isoform, or with tags, fused parts or gaps): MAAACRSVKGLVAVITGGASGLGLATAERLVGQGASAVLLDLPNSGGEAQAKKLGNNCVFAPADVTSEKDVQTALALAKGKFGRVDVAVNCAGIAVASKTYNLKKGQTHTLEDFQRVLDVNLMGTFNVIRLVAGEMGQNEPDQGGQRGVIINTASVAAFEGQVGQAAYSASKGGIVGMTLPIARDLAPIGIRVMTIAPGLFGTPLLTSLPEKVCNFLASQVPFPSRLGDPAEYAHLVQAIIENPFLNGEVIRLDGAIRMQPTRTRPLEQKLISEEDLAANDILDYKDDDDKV
Procedure: To screen compounds of the disclosure for their ability to block HSD17B10 function, an enzymatic blocking assay was performed. For the assay, HSD17B10 activity was measured by detecting NADH formation from oxidation of Estradiol using a NADH Glo luminescence assay (Promega, #Cat. No. G9062). Compounds of the disclosure were evaluated in a dose titration assay where the compounds were titrated at 10-point dose curve using an Echo-555 liquid handling dispenser. HSD17B10 (Seq. ID NO: 5, expressed in mammalian cells) was added at a final concentration of 31.25 ng/well in a buffer containing 0.2M Tris-HCl, pH 7.5, into a low volume white 384-well assay plate. Compounds were incubated with the enzyme for 30 minutes at room temperature. The assay reaction was then initiated by addition of 25 μM Estradiol substrate (Sigma, catalog #E2758-250MG, CAS: 50-28-2) and 500 μM NAD co-factor, and the reaction mixture was incubated for 3 hours at room temperature. DMSO at a concentration of 0.5% was used as a negative control and a ‘no substrate’ control was used a positive control in the assay. Detection reagent was then added as per manufacturer's instructions, and the plate was subsequently incubated in the dark for 1 hour at room temperature, NADH generated was detected in the luminescence mode on the Envision Perkin Elmer plate reader. The IC50 values were determined using Dotmatics analysis software.

Chain of HSD17B13 (Q7Z5P4 other isoform, or with tags, fused parts or gaps): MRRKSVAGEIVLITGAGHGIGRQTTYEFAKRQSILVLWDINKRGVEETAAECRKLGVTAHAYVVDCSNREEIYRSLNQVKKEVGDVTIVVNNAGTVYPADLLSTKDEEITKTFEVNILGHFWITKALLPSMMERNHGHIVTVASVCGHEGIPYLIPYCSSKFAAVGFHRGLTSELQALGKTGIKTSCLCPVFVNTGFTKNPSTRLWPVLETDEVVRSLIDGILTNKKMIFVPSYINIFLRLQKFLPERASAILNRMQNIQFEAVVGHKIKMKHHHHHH

IC50 (HSD17B13): 0.09 µM | Microsome Stability Human liver microsomes % Remaining @60 min ([1]; 60 min): 0.62% | microsomal CLint at 1 h, 1 µM ([1]; human, human liver microsomes, pooled, NADPH, 37° C., read-out: Microsome Stability Human liver microsomes Cl): 172 µL/min/mg | half-life at 1 h, 1 µM ([1]; human, human liver microsomes, pooled, NADPH, 37° C., read-out: Microsome Stability Human liver microsomes T½): 8.07 min | Microsome Stability Mouse liver microsomes % Remaining @60 min ([2]; 60 min): 59.10% | microsomal CLint at 1 h, 1 µM ([2]; mouse, mouse liver microsomes, pooled, NADPH, 37° C., read-out: Microsome Stability Mouse liver microsomes Cl): 17.4 µL/min/mg | half-life at 1 h, 1 µM ([2]; mouse, mouse liver microsomes, pooled, NADPH, 37° C., read-out: Microsome Stability Mouse liver microsomes T½): 79.7 min | IC50 (HSD17B1): 3.2 µM | IC50 (HSD17B2): 8.71 µM | IC50 (HSD17B4): 84.5 µM | IC50 (HSD17B10): > 30 µM
Compound: Cc1ccc2c(c1)Oc1cccc(Cl)c1C2NC(=O)c1ccc(C(F)(F)F)[nH]c1=O (centres unmarked) [Compound 190, N-(1-chloro-6-methyl-9H-xanthen-9-yl)-2-oxo-6-(trifluoromethyl)-1,2-dihydropyridine-3-carboxamide]
